This is an account of results in US20240360151A1 (SANOFI, priority 2023, published 2024).

The term pIC50 denotes the IC50 on a negative log10 scale, so that one unit is a factor of ten.

pIC50: −log10 of the molar value. A value given as a limit tells only on which side of the number the result lay.

One assay deals with T1, NLRP3 inflammasome (Homo sapiens, UniProt Q96P20).
T1 construct: endogenous in cells; host or cells: THP-1 monocytic cells
The experiment in a line: IL-1β secretion assay (NLRP3 IC50) in LPS-primed, nigericin-activated THP-1 cells, HTRF. Type of assay: cell-based. The following applies: monocytic THP-1 cells; LPS 10 ng/mL 3 h priming, then compound + nigericin 10 μM 2 h; relative IC50, 10 concentrations, geometric mean. A digest of the protocol: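 THP-1 cells primed with LPS 10 ng/mL for 3 h at 37° C., then compound (10-point 1:3 dilution, 0.1% DMSO) added with 10 μM nigericin for 2 h. Supernatant IL-1β measured by HTRF; relative IC50 from a 4-parameter logistic fit, reported as geometric mean.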

Assay [1] relates to NF-kB pathway (TNF-α secretion by THP-1 cells). The experiment in a line: TNF-α secretion assay in LPS-stimulated THP-1 cells, Lumit immunoassay. The class given is cell-based, human. The following applies: Homo sapiens, THP-1, 3 h, monocytic THP-1 cells, LPS 10 ng/mL, relative IC50, 10 concentrations, geometric mean. The protocol:
Monocytic THP-1 cells were maintained in RPMI 1640 media (Gibco 21875)+10% FBS, (Gibco 10500)+1% penicillin/streptomycin (Gibco 15140-122). Cells were then plated at 40,000 cells per well in 384-well cell culture plates (Corning 3542) and maintained with RPMI1640 (Gibco 11835)+5% FBS, (Gibco 10500). Experimental compounds were prepared and added as described above. TNF-α secretion was triggered by the addition of 10 ng/mL LPS (invivoGen, tlrl-3pelps) and cells were incubated for 3 hours. TNF-α levels were monitored directly in the cells plate using an Lumit assay (Lumit TNFa-Human Immunoassay—Promega W6051) according to manufacturers' instructions.
Data were expressed as percentage of inhibition (I %) as compared to a maximum signal control containing no small molecule (I %=0%) according to the formula: 1%=(1−((Sample−Min))/((Max−Min)))×100, where: • Sample: Signal obtained in the presence of each compound tested, • Max: Maximum signal in the absence of compound added, • Min: Minimum or background signal obtained in the absence of activation signal.
Relative IC50 (IC50 rel) were obtained from a dose response curve with 10 concentrations. Final IC50 rels are expressed as the geometric mean.
Relative IC50 values were estimated with Biost@t-SPEED v2.4 internal software based on SAS system using the 4-parameter logistic model according to Ratkovsky and Reedy (D. A. Ratkovsky, T. J. Reedy, Choosing near-linear parameters in the four parameters logistic model radioligands and related assays. Biometrics, 42 (1986), 575-582): Y=A+C/((1+exp(−B*(log(X)−M)))), where: • A: Lower asymptote (BOTTOM), • A+C: Upper asymptote (TOP), • M: the logarithm of the concentration estimated at the inflexion point (the logarithm of the relative IC50), • B: Slope at the inflexion point of the curve.

T1 sequence (Q96P20 whole entry): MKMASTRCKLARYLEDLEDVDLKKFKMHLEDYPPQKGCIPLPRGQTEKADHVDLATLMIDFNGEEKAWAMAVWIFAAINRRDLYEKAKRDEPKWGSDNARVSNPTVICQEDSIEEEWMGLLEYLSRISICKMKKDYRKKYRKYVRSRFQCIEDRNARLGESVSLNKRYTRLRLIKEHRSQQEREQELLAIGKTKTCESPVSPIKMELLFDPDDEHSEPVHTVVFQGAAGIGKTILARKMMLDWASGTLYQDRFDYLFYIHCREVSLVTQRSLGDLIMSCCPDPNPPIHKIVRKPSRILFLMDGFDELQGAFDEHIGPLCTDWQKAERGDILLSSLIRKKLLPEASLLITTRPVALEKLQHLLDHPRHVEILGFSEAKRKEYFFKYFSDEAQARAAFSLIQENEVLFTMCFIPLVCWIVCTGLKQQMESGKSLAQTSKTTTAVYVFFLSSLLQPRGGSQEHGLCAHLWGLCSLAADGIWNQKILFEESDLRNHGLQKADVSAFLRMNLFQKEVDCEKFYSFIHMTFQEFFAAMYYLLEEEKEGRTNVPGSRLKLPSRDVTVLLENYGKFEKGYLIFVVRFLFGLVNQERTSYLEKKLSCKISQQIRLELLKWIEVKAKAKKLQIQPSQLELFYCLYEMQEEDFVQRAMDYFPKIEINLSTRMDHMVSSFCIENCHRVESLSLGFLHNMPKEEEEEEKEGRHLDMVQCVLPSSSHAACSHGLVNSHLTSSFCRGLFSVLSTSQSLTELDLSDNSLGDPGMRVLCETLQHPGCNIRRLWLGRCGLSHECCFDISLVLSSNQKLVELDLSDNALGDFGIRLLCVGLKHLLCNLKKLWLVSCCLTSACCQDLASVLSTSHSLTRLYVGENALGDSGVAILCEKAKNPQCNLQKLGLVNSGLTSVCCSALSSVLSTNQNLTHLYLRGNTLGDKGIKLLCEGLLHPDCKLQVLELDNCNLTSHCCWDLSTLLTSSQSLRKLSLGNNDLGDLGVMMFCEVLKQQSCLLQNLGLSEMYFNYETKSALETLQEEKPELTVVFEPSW

Turning to `Cc1cc(C)c(-c2ccc(N3CCO[C@H]4CN(C5CCC5)CC[C@H]43)nn2)c(O)c1` (racemic) [Example 4, 3,5-dimethyl-2-[6-[rac-(4aS,8aR)-6-cyclobutyl-3,4a,5,7,8,8a-hexahydro-2H-pyrido[3,4-b][1,4]oxazin-1-yl]pyridazin-3-yl]phenol], the negative-log IC50 (pIC50) at NLRP3 inflammasome was 6.60; in assay [1], less than 5.00.
The corresponding values for `Cc1cc(C)c(-c2ccc(N3CCO[C@@H]4COCC[C@H]43)nn2)c(O)c1` (racemic) [Example 154, 3,5-dimethyl-2-[6-[rac-(4aR,8aS)-3,4a,5,7,8,8a-hexahydro-2H-pyrano[3,4-b][1,4]oxazin-1-yl]pyridazin-3-yl]phenol] are 6.46 and less than 5.00.
The corresponding values for `Cc1cc(C)c(-c2ccc(N3CCO[C@H]4CCNC[C@H]43)nn2)c(O)c1` (racemic) [Example 195, 3,5-dimethyl-2-[6-[rac-(4aR,8aS)-2,3,4a,5,6,7,8,8a-octahydropyrido[4,3-b][1,4]oxazin-4-yl]pyridazin-3-yl]phenol] are 7.85 and less than 5.00.
On the same counts, the results for `Cc1cc(C(F)(F)F)cc(O)c1-c1ccc(N2CCO[C@H]3CCNC[C@H]32)nn1` (racemic) [Example 197, 2-[6-[rac-(4aR,8aS)-2,3,4a,5,6,7,8,8a-octahydropyrido[4,3-b][1,4]oxazin-4-yl]pyridazin-3-yl]-3-methyl-5-(trifluoromethyl)phenol] are 8.05 and less than 5.00.
As to `CCN1CC[C@@H]2OCCN(c3ccc(-c4c(C)cc(C)cc4O)nn3)[C@@H]2C1` (racemic) [Example 209, 2-[6-[rac-(4aR,8aS)-6-ethyl-3,4a,5,7,8,8a-hexahydro-2H-pyrido[4,3-b][1,4]oxazin-4-yl]pyridazin-3-yl]-3,5-dimethyl-phenol], the negative-log IC50 (pIC50) on NLRP3 inflammasome was 8.70; in assay [1], less than 5.00.
On the same counts, the results for `CCN1CC[C@@H]2OCCN(c3ccc(-c4c(C)cc(C(F)(F)F)cc4O)nn3)[C@@H]2C1` (racemic) [Example 210, 2-[6-[rac-(4aR,8aS)-6-ethyl-3,4a,5,7,8,8a-hexahydro-2H-pyrido[4,3-b][1,4]oxazin-4-yl]pyridazin-3-yl]-3-methyl-5-(trifluoromethyl)phenol] are 9.00 and less than 5.00.
As for `Cc1cc(N2CCO[C@@H]3CCN(C)C[C@@H]32)nnc1-c1ccc(F)cc1O` [Example 480, 2-[6-[(4aS,8aR)-6-methyl-3,4a,5,7,8,8a-hexahydro-2H-pyrido[4,3-b][1,4]oxazin-4-yl]-4-methyl-pyridazin-3-yl]-5-fluoro-phenol], on NLRP3 inflammasome, the pIC50 was 8.22.
Still for that read-out and setting: the figure for `CCc1cc(C(F)(F)F)cc(O)c1-c1ccc(N2CCO[C@@H]3CCN(C)C[C@@H]32)nn1` [Example 481, 2-[6-[(4aS,8aR)-6-methyl-3,4a,5,7,8,8a-hexahydro-2H-pyrido[4,3-b][1,4]oxazin-4-yl]pyridazin-3-yl]-3-ethyl-5-(trifluoromethyl)phenol] is 8.70; for `C#Cc1cc(C)c(-c2ccc(N3CCO[C@H](CO)C3)nn2)c(O)c1` [Example 508, 5-ethynyl-2-[6-[(2S)-2-(hydroxymethyl)morpholin-4-yl]pyridazin-3-yl]-3-methyl-phenol] it is 7.40.
For `Cc1cc(O)c(-c2ccc(N3CCO[C@H](CO)C3)nn2)c(C(F)(F)F)c1` [Example 509, 2-[6-[(2S)-2-(hydroxymethyl)morpholin-4-yl]pyridazin-3-yl]-5-methyl-3-(trifluoromethyl)phenol], the pIC50 on NLRP3 inflammasome is 7.80.
As to `CC(=O)N1CC[C@H]2CCN(c3cc(C)c(-c4ccc(C(F)(F)F)cc4O)nn3)[C@H]2C1` [Example 514, 1-[(3aR,7aR)-1-[6-[2-hydroxy-4-(trifluoromethyl)phenyl]-5-methyl-pyridazin-3-yl]-3,3a,4,5,7,7a-hexahydro-2H-pyrrolo[2,3-c]pyridin-6-yl]ethanone], on NLRP3 inflammasome, the pIC50 is 6.71.
On the same count and under the same terms, the figure for `Cc1cc(C(F)(F)F)cc(O)c1-c1ccc(N2CCC[C@H]3[C@@H]2CCCN3C)nn1` [Example 515, 2-[6-[(4aS,8aS)-5-methyl-2,3,4,4a,6,7,8,8a-octahydro-1,5-naphthyridin-1-yl]pyridazin-3-yl]-3-methyl-5-(trifluoromethyl)phenol] is 7.36; for `Cc1cc(C(F)(F)F)cc(O)c1-c1ccc(N2CCC[C@@H]3[C@H]2CCCN3C)nn1` [Example 516, 2-[6-[(4aR,8aR)-5-methyl-2,3,4,4a,6,7,8,8a-octahydro-1,5-naphthyridin-1-yl]pyridazin-3-yl]-3-methyl-5-(trifluoromethyl)phenol] it is 5.97; for `Cc1cc(C)c(-c2ccc(N3CCC[C@@H]4CCN(C)C[C@H]43)nn2)c(O)c1` [Example 517, 2-[6-[(4aR,8aS)-7-methyl-2,3,4,4a,5,6,8,8a-octahydro-1,7-naphthyridin-1-yl]pyridazin-3-yl]-3,5-dimethyl-phenol] it is 5.87.
Still for that read-out and setting: with `Cc1cc(C)c(-c2ccc(N3CCC[C@H]4CCN(C)C[C@H]43)nn2)c(O)c1` [Example 518, 2-[6-[(4aS,8aS)-7-methyl-2,3,4,4a,5,6,8,8a-octahydro-1,7-naphthyridin-1-yl]pyridazin-3-yl]-3,5-dimethyl-phenol] the figure was 5.91.
Same read-out and setting: with `Cc1cc(C)c(-c2ccc(N3CCC[C@@H]4CCN(C)C[C@@H]43)nn2)c(O)c1` [Example 519, 2-[6-[(4aR,8aR)-7-methyl-2,3,4,4a,5,6,8,8a-octahydro-1,7-naphthyridin-1-yl]pyridazin-3-yl]-3,5-dimethyl-phenol] the figure was 8.15; with `Cc1cc(C)c(-c2ccc(N3CCC[C@H]4CCN(C)C[C@@H]43)nn2)c(O)c1` [Example 520, 2-[6-[(4aS,8aR)-7-methyl-2,3,4,4a,5,6,8,8a-octahydro-1,7-naphthyridin-1-yl]pyridazin-3-yl]-3,5-dimethyl-phenol], 7.26.
For the compound `Cc1cc(C)c(-c2ccc(N3CCO[C@@H]4CCN(CCF)C[C@@H]43)nn2)c(O)c1` [Example 521, 2-[6-[(4aS,8aR)-6-(2-fluoroethyl)-3,4a,5,7,8,8a-hexahydro-2H-pyrido[4,3-b][1,4]oxazin-4-yl]pyridazin-3-yl]-3,5-dimethyl-phenol], the negative logarithm of the IC50 (pIC50) at NLRP3 inflammasome is 7.55.
For the compound `Cc1cc(Cl)cc(O)c1-c1ccc(N2CCO[C@@H]3CCN(CCF)C[C@@H]32)nn1` [Example 522, 2-[6-[(4aS,8aR)-6-(2-fluoroethyl)-3,4a,5,7,8,8a-hexahydro-2H-pyrido[4,3-b][1,4]oxazin-4-yl]pyridazin-3-yl]-5-chloro-3-methyl-phenol], the pIC50 on NLRP3 inflammasome is 7.68.
Still for that read-out and setting: the figure for `Cc1cc(C(F)(F)F)cc(O)c1-c1ccc(N2CCC[C@@H]3CCN(C)C[C@@H]32)nn1` [Example 523, 2-[6-[(4aR,8aR)-7-methyl-2,3,4,4a,5,6,8,8a-octahydro-1,7-naphthyridin-1-yl]pyridazin-3-yl]-3-methyl-5-(trifluoromethyl)phenol] is 6.17.
For `Cc1cc(C(F)(F)F)cc(O)c1-c1ccc(N2CCC[C@H]3CCN(C)C[C@H]32)nn1` [Example 524, 2-[6-[(4aS,8aS)-7-methyl-2,3,4,4a,5,6,8,8a-octahydro-1,7-naphthyridin-1-yl]pyridazin-3-yl]-3-methyl-5-(trifluoromethyl)phenol], the negative-log IC50 (pIC50) on NLRP3 inflammasome is 8.10.
On the same count and under the same terms, with `Oc1cc(Cl)ccc1-c1ccc(N2CCO[C@@H]3CCN(CCF)C[C@@H]32)nn1` [Example 525, 2-[6-[(4aS,8aR)-6-(2-fluoroethyl)-3,4a,5,7,8,8a-hexahydro-2H-pyrido[4,3-b][1,4]oxazin-4-yl]pyridazin-3-yl]-5-chloro-phenol] the figure was 6.20; with `CCc1cc(Cl)cc(O)c1-c1ccc(N2CCO[C@@H]3CCN(CC)C[C@@H]32)nn1` [Example 526, 2-[6-[(4aS,8aR)-6-ethyl-3,4a,5,7,8,8a-hexahydro-2H-pyrido[4,3-b][1,4]oxazin-4-yl]pyridazin-3-yl]-5-chloro-3-ethyl-phenol], 9.00.
Same read-out and setting: with `Cc1cc(C)c(-c2ccc(N3CCO[C@@H]4CCN(CCCF)C[C@@H]43)nn2)c(O)c1` [Example 527, 2-[6-[(4aS,8aR)-6-(3-fluoropropyl)-3,4a,5,7,8,8a-hexahydro-2H-pyrido[4,3-b][1,4]oxazin-4-yl]pyridazin-3-yl]-3,5-dimethyl-phenol] the figure was 7.70.
